Data taken from PubChem BioAssay AID256 (DTP/NCI, 2004).
Toxic doses and inconclusive results are not listed. How the source made its calls: active means survival T/C of 150% or more; inactive means T/C below 125% in these data.

Tested on: CD2F1 mice, L1210 leukemia ip, survival T/C
Test: NCI In Vivo Anticancer Drug Screen. Data for tumor model L1210 Leukemia (intraperitoneal) in CD2F1 (CDF1) mice
Conditions: endpoint: mean survival time, higher = longer survival
Method in brief: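 Ratio T/C, where T is the treated-group value and C the vehicle-dosed control value, from mice implanted with a transplantable tumor.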

[1] = dose: 100.0 mg/kg/injection, schedule: Q04DX003 (ip), vehicle: saline with Tween-80
[2] = dose: 200.0 mg/kg/injection, schedule: Q04DX003 (ip), vehicle: saline with Tween-80
[3] = dose: 400.0 mg/kg/injection, schedule: Q04DX003 (ip), vehicle: saline with Tween-80

Measured: T/C

O=C(O)C(Cl)(Br)C(Cl)c1ccccc1 (configuration not stated)
inactive: [1] 100 % of control | [2] 102 % of control | [3] 103 % of control

CCN1/C(=C/C=C/C=C/c2sc3ccccc3[n+]2CC)Sc2ccccc21
inactive: dose: 0.08 mg/kg/injection, schedule: Q01DX009 (ip), vehicle: saline 109 % of control | dose: 0.09 mg/kg/injection, schedule: Q01DX009 (ip), vehicle: saline 117 % of control | dose: 0.12 mg/kg/injection, schedule: Q01DX009 (ip), vehicle: saline 114 % of control | dose: 0.16 mg/kg/injection, schedule: Q04DX003 (ip), vehicle: saline 105 % of control | dose: 0.19 mg/kg/injection, schedule: Q01DX009 (ip), vehicle: saline 121 % of control | dose: 0.25 mg/kg/injection, schedule: Q04DX003 (ip), vehicle: saline 112 % of control | dose: 0.28 mg/kg/injection, schedule: Q01DX009 (ip), vehicle: saline 114 % of control | dose: 0.33 mg/kg/injection, schedule: Q04DX002 (ip), vehicle: saline 101 % of control | dose: 0.38 mg/kg/injection, schedule: Q04DX003 (ip), vehicle: saline 108 % of control | dose: 0.42 mg/kg/injection, schedule: Q01DX009 (ip), vehicle: saline 122 % of control | dose: 0.5 mg/kg/injection, schedule: Q04DX002 (ip), vehicle: saline 112 % of control | dose: 0.57 mg/kg/injection, schedule: Q04DX003 (ip), vehicle: saline 118 % of control | dose: 0.66 mg/kg/injection, schedule: Q01DX001 (ip), vehicle: saline 120 % of control | dose: 0.76 mg/kg/injection, schedule: Q04DX002 (ip), vehicle: saline 106 % of control | dose: 0.85 mg/kg/injection, schedule: Q04DX003 (ip), vehicle: saline 112 % of control | dose: 0.99 mg/kg/injection, schedule: Q01DX001 (ip), vehicle: saline 118 % of control | dose: 1.1 mg/kg/injection, schedule: Q04DX002 (ip), vehicle: saline 114 % of control | dose: 1.5 mg/kg/injection, schedule: Q01DX001 (ip), vehicle: saline 100 % of control | dose: 1.7 mg/kg/injection, schedule: Q04DX002 (ip), vehicle: saline 97 % of control | dose: 2.2 mg/kg/injection, schedule: Q01DX001 (ip), vehicle: saline 114 % of control | dose: 3.3 mg/kg/injection, schedule: Q01DX001 (ip), vehicle: saline 114 % of control

N/C(=N\O)c1ncn(C2CCCC2)c1N
inactive: dose: 75.0 mg/kg/injection, schedule: Q01DX001 (ip), vehicle: other 100 % of control | dose: 150.0 mg/kg/injection, schedule: Q01DX001 (ip), vehicle: other 102 % of control

S=C1SCCS1
inactive: dose: 100.0 mg/kg/injection, schedule: Q04DX003 (ip), vehicle: saline sonified 98 % of control | dose: 200.0 mg/kg/injection, schedule: Q04DX003 (ip), vehicle: saline sonified 107 % of control | dose: 400.0 mg/kg/injection, schedule: Q04DX003 (ip), vehicle: saline sonified 89 % of control

O=C(O)c1ccccc1C(=O)OCC(c1ccccc1)c1ccccc1
inactive: [1] 97 % of control | [2] 89 % of control

COC(=O)/C1=C/CCCCCC(=O)C1C(=O)OC (configuration not stated)
inactive: dose: 100.0 mg/kg/injection, schedule: Q01DX009 (ip), vehicle: saline with Tween-80 96 % of control | [1] 96 % of control | dose: 200.0 mg/kg/injection, schedule: Q01DX009 (ip), vehicle: saline with Tween-80 96 % of control | [2] 100 % of control | dose: 400.0 mg/kg/injection, schedule: Q01DX009 (ip), vehicle: saline with Tween-80 93 % of control | [3] 96 % of control

NCC(=O)NCC(=O)OCCO
inactive: dose: 50.0 mg/kg/injection, schedule: Q01DX009 (ip), vehicle: water 97 % of control | dose: 100.0 mg/kg/injection, schedule: Q01DX009 (ip), vehicle: water 93 % of control | dose: 200.0 mg/kg/injection, schedule: Q01DX009 (ip), vehicle: water 91 % of control | dose: 400.0 mg/kg/injection, schedule: Q01DX009 (ip), vehicle: water 90 % of control

CNC
inactive: dose: 100.0 mg/kg/injection, schedule: Q04DX002 (ip), vehicle: saline 86 % of control
